Here are results for one compound from ChEMBL document CHEMBL4138076, “Methyllysine binding domains: Structural insight and small molecule probe development” (Eur J Med Chem, 2017).

In experiment [1] the target is Histone-lysine N-methyltransferase 2A (Homo sapiens, UniProt Q03164). Kind of experiment: Binding affinity to 15N-labeled GST-tagged MLL1 PHD3 finger domain (1565 to 1627 residues) (unknown origin) expressed in Escherichia coli Rosetta2 BL21(DE3) pLysS cells by NMR Spectroscopy method.
Experiment [2] has as its target Lysine-specific demethylase 5A (Homo sapiens, UniProt P29375). The experiment can be described thus: Inhibition of JARID1A (unknown origin).

Histone-lysine N-methyltransferase 2A, sequence (Q03164 1-2718 limits assumed): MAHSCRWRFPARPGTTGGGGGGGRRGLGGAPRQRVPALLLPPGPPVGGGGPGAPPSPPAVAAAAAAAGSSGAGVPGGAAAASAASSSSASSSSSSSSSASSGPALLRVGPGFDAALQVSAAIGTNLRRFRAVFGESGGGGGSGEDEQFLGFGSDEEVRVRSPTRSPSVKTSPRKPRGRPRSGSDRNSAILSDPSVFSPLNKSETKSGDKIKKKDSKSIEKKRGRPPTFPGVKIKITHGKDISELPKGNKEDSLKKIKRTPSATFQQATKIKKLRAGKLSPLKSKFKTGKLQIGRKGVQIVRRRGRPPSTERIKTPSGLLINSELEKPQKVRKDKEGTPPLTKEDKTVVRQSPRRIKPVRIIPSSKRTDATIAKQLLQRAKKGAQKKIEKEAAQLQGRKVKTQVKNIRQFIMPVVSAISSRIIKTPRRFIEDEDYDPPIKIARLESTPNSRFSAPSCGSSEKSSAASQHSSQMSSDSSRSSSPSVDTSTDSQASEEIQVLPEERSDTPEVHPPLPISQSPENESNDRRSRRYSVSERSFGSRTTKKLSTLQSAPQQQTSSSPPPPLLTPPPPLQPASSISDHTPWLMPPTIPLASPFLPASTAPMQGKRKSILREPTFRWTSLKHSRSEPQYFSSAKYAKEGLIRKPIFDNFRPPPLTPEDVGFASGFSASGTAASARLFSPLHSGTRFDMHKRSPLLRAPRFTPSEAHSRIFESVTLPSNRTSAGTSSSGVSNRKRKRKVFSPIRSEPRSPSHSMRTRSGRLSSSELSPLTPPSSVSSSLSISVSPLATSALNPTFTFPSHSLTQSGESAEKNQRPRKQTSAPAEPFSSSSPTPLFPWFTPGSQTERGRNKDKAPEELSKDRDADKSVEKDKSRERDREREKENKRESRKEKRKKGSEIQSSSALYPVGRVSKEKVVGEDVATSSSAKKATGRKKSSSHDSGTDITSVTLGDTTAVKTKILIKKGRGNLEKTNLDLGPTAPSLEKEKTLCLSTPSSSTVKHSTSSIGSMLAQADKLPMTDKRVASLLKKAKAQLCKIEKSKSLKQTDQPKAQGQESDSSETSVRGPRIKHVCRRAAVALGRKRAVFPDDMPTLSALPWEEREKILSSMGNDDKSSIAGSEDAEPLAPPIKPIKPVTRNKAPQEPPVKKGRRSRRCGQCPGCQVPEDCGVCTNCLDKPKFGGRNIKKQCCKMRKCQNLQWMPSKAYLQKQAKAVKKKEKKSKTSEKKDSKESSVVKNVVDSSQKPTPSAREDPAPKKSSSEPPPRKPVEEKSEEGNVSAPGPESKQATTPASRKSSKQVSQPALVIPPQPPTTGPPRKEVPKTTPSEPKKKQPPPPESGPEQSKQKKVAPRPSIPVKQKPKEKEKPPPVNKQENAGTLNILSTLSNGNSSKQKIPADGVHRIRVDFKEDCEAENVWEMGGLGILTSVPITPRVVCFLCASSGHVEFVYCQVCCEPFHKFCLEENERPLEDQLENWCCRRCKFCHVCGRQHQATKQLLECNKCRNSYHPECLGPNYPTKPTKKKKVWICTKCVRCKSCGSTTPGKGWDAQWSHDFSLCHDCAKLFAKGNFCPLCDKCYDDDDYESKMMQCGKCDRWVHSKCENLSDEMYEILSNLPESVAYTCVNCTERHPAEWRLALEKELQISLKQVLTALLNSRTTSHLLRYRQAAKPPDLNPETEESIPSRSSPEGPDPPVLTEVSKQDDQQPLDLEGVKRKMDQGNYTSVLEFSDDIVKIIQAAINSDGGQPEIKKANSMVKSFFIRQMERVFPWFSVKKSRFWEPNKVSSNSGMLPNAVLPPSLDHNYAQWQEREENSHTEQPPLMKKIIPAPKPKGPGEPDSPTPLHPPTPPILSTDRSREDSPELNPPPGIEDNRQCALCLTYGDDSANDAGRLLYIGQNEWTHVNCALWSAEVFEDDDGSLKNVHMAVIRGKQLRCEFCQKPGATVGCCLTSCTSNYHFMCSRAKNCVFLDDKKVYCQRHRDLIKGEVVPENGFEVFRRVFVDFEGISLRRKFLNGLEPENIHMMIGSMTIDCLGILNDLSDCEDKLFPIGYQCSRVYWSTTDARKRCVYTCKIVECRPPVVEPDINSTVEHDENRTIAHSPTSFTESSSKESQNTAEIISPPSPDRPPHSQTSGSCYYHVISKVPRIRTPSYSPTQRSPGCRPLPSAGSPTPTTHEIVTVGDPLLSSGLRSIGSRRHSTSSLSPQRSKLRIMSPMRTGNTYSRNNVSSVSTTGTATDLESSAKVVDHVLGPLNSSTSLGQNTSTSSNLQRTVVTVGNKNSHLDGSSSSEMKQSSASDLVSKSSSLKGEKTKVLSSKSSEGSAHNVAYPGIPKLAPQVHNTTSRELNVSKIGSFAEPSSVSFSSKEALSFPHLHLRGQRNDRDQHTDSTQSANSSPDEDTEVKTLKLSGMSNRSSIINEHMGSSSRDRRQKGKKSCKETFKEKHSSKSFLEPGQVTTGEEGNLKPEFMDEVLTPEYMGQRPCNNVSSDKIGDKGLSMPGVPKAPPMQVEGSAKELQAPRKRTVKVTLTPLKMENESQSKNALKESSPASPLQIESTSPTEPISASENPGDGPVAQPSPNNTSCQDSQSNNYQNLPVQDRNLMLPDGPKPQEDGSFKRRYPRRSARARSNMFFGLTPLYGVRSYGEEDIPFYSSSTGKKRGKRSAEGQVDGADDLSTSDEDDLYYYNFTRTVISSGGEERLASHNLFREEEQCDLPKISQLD
Histone-lysine N-methyltransferase 2A, sequence (Q03164 2719-3969 limits assumed): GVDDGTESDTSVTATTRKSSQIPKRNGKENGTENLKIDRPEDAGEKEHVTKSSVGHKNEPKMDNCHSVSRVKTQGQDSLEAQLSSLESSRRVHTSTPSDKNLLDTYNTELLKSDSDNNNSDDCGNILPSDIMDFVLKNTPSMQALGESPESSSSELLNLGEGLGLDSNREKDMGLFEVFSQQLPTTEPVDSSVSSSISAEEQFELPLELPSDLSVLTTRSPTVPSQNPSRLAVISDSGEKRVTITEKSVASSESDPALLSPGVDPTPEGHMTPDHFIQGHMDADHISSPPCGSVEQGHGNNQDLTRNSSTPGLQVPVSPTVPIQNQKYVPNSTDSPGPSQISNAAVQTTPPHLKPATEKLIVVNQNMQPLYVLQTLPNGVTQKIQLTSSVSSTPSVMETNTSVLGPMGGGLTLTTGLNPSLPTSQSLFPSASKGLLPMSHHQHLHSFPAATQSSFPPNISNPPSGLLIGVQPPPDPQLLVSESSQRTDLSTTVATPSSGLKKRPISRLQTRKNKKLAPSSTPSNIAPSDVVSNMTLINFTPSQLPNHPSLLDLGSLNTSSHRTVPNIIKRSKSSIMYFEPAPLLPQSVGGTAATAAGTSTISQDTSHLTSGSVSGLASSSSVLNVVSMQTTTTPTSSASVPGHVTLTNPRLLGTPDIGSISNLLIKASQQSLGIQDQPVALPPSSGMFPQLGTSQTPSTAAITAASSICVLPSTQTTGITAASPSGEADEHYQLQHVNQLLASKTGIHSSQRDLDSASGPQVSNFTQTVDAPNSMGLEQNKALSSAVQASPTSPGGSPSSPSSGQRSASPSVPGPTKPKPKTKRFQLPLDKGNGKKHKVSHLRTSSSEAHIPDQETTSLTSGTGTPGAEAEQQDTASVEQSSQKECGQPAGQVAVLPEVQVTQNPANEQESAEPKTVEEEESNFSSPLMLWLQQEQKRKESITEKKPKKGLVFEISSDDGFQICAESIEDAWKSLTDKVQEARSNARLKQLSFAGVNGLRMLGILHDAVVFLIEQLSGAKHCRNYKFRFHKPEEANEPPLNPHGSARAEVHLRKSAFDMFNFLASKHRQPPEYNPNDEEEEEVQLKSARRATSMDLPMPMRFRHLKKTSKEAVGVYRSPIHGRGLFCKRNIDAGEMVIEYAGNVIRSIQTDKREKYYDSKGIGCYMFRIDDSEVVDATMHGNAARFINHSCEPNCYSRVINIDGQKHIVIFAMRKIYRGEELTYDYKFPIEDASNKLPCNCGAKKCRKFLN

In the case of `C[C@H](NC(=O)[C@H](CCCCN)NC(=O)CNC(=O)CNC(=O)[C@@H](NC(=O)[C@H](CO)NC(=O)[C@H](CCCCN)NC(=O)[C@H](CCCNC(=N)N)NC(=O)[C@H](C)NC(=O)[C@@H](NC(=O)[C@H](CCC(N)=O)NC(=O)[C@H](CCCC[N+](C)(C)C)NC(=O)[C@@H](NC(=O)[C@H](CCCNC(=N)N)NC(=O)[C@H](C)NC(=S)Nc1ccc(C2=C3C=CC(O)=CC3Oc3cc(O)ccc32)c(C(=O)O)c1)[C@@H](C)O)[C@@H](C)O)[C@@H](C)O)C(=O)O` (some centres not stated), the figures for the Kd in experiment [1] and in experiment [2] were 20 µM and 0.8 to 0.9 µM, respectively.
